Calls of active or inactive are those of the source. The rule behind the calls is not given here. Numbered stars: 1 amine (or outer) side, 2 acyl side, 3 side chain; on linkers, the order of the positions; unused ones are H or OH. Bridge positions count the residues as written; N and C are the ends. Square brackets hold non-standard residues; d marks the D form. Peptide text beside a SMILES is read from it. X2 = C[C@@](CCCCC=[*:3])(N[*:1])C(=O)[*:2]; R8 = C=CCCCCCC[C@@](C)(N)C(=O)O; S5 = C=CCCC[C@](C)(N)C(=O)O; Pra = C#CC[C@H](N)C(=O)O
Key:
[1] = target: Anaphase-promoting complex subunit 11 (Homo sapiens) (UniProt Q9NYG5); experiment: Binding affinity to APC11 (unknown origin) assessed as binding free energy
Chain of Anaphase-promoting complex subunit 11 (Homo sapiens) (Q9NYG5 whole entry, one chain of several): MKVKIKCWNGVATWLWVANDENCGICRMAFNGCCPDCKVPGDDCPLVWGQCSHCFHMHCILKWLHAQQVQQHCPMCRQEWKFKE

HeLa [2] = experiment: (§1) Inhibition of recombinant APC/C/cdc20 (unknown origin) in metaphase-synchronized human HeLa cells co-expressing GST-tagged UBA1/UBE2C/methylated ubiquitin using RD680-labeled securin as substrate at 100 uM measured after 45 mins in presence of ATP by immuno-precipitation method; assay type: cell-based
HeLa [3] = experiment: Inhibition of recombinant APC/C/cdc20 (unknown origin) in metaphase-synchronized human HeLa cells co-expressing GST-tagged UBA1/UBE2D1/methylated ubiquitin using RD680-labeled securin as substrate at 100 uM measured after 45 mins in presence of ATP by immuno-precipitation method; assay type: cell-based
HeLa [4] = experiment: as §1, with “substrate assessed as maximum inhibition” for “substrate”, “15” for “45”; assay type: cell-based
[5] = Drug localization in human HeLa cells assessed as punctate pattern formation at 50 uM incubated for 10 hrs by AF488 dye based analysis; assay type: ADME, cell-based
TERT-RPE1 = experiment: Effect on time length of mitosis in human RPE-1 cells at 50 uM measured for 10 to 24 hrs by bright field microscopy; assay type: functional, cell-based; details: time 10-24 hrs
[6] = target: Anaphase-promoting complex subunit 11 (Homo sapiens) (UniProt Q9NYG5); experiment: Binding affinity to APC11 in asynchronously growing human HeLa cells incubated for 30 mins by pull down assay; assay type: cell-based
[7] = target: E3 ubiquitin-protein ligase Mdm2 (Homo sapiens) (UniProt Q00987); experiment: Binding affinity to MDM2 in asynchronously growing human HeLa cells incubated for 30 mins by pull down assay; assay type: cell-based
Chain of E3 ubiquitin-protein ligase Mdm2 (Homo sapiens) (Q00987 whole entry, looked up): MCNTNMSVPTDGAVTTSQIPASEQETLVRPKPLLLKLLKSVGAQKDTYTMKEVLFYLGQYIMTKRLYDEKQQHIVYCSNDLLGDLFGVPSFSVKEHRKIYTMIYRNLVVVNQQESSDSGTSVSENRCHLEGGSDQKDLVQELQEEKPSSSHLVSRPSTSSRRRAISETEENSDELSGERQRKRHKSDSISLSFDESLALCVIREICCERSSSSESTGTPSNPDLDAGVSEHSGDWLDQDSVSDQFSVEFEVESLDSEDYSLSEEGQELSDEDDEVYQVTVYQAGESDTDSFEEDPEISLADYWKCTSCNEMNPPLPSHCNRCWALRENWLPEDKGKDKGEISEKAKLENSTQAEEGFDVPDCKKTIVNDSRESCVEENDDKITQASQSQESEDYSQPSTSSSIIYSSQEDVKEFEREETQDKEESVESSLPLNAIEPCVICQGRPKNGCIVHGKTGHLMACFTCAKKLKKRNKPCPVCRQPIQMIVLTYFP

[8] = target: E3 ubiquitin-protein ligase CBL (Homo sapiens) (UniProt P22681); experiment: Binding affinity to c-CBL in asynchronously growing human HeLa cells incubated for 30 mins by pull down assay; assay type: cell-based

SMILES | deltaG [1] | inhibition (HeLa [2]) | inhibition (HeLa [3]) | also measured
C#CC[C@H](NC(=O)[C@H](Cc1c[nH]c2ccccc12)NC(=O)[C@H](CCC(=O)O)NC(C)=O)C(=O)N[C@]1(C)CCCCCC/C=C\CCCC[C@@](C)(C(=O)N[C@@H](CCCNC(=N)N)C(=O)N[C@@H](CCCNC(=N)N)C(=O)N[C@@H](C)C(N)=O)NC(=O)[C@H](CCCNC(=N)N)NC(=O)[C@H](CCC(N)=O)NC(=O)[C@H]([C@@H](C)CC)NC(=O)[C@H](CCC(=O)O)NC(=O)[C@H](CCCCN)NC(=O)[C@H]([C@@H](C)CC)NC1=O (Ac-EW[Pra][R8]IKEIQR[X2]RRA-NH2; staple (Z) 4-11) | – | – | – | Drug uptake [5]: Active
CC(=O)N[C@@H](CCC(=O)O)C(=O)N[C@@H](Cc1c[nH]c2ccccc12)C(=O)N[C@@H](Cc1c[nH]c2ccccc12)C(=O)N[C@]1(C)CCCCCC/C=C\CCC[C@@](C)(C(=O)N[C@@H](CCCNC(=N)N)C(=O)N[C@@H](CCCNC(=N)N)C(=O)N[C@@H](C)C(N)=O)NC(=O)[C@H](CCCNC(=N)N)NC(=O)[C@H](CCC(N)=O)NC(=O)[C@H](CC(C)C)NC(=O)[C@H](CCC(=O)O)NC(=O)[C@H](CC(C)C)NC(=O)[C@H](CCCCN)NC1=O (Ac-EWW[R8]KLELQR[S5]RRA-NH2; staple (Z) 4-11) | – | Active; Compound Exerted Better Inhibitory Effect Than Tame | – | –
CC(=O)N[C@@H](CCCNC(=N)N)C(=O)N[C@H]1CSSC[C@@H](C(=O)N[C@@H](CCCNC(=N)N)C(N)=O)NC(=O)[C@H](Cc2c[nH]c3ccccc23)NC(=O)[C@H](Cc2ccccc2)NC(=O)[C@H]([C@@H](C)O)NC(=O)[C@H](CCC(=O)O)NC(=O)[C@@H]2CCCN2C(=O)CNC(=O)[C@H](Cc2c[nH]c3ccccc23)NC(=O)[C@H](CO)NC1=O (Ac-RCSWGPETFWCR-NH2; disulfide 2-11) | -24.2 kcal/mol | Active | Active | –
CC(=O)N[C@@H](CCCNC(=N)N)C(=O)N[C@@H](CCCNC(=N)N)C(=O)N[C@@H](CCCCN)C(=O)N[C@]1(C)CCCCCC/C=C\CCC[C@@](C)(C(=O)N[C@H](C(=O)N[C@@H](CCCNC(=N)N)C(=O)N[C@@H](Cc2ccc(O)cc2)C(N)=O)C(C)C)NC(=O)[C@H](CCCNC(=N)N)NC(=O)[C@H](C)NC(=O)[C@H](CCCNC(=N)N)NC(=O)[C@H](CCC(=O)O)NC(=O)[C@H](CCC(N)=O)NC(=O)[C@H](C)NC1=O (Ac-RRK[R8]AQERAR[S5]VRY-NH2; staple (Z) 4-11) | – | inactive | – | –
CC[C@H](C)[C@@H]1NC(=O)[C@@](C)(NC(=O)[C@H](CCC(N)=O)NC(=O)[C@@H]2CCCN2C(=O)[C@H](Cc2c[nH]c3ccccc23)NC(=O)[C@H](CCCNC(=N)N)NC(C)=O)CCC/C=C/CCC[C@@](C)(C(=O)N[C@@H](CCC(N)=O)C(=O)N[C@H](C(=O)N[C@@H](CCCNC(=N)N)C(=O)N[C@@H](Cc2c[nH]c3ccccc23)C(=O)N[C@@H](Cc2c[nH]c3ccccc23)C(N)=O)C(C)C)NC(=O)[C@H](CC(=O)O)NC(=O)[C@H](CCCCN)NC1=O (Ac-RWPQ[S5]IKD[S5]QVRWW-NH2; staple (E) 5-9) | – | Active; Compound Exerted Better Inhibitory Effect Than Tame | – | Activity (TERT-RPE1): No effect
CC[C@H](C)[C@@H]1NC(=O)[C@H](CCC(=O)O)NC(=O)[C@H](CC(C)C)NC(=O)[C@@H](CCCCN)NC(=O)[C@](C)(NC(=O)[C@H](Cc2c[nH]c3ccccc23)NC(=O)[C@H](Cc2c[nH]c3ccccc23)NC(=O)[C@H](CCC(=O)O)NC(C)=O)CCCCCC/C=C\CCC[C@@](C)(C(=O)N[C@@H](CCCNC(=N)N)C(=O)N[C@@H](CCCNC(=N)N)C(=O)N[C@@H](C)C(N)=O)NC(=O)[C@H](CCCNC(=N)N)NC(=O)[C@H](CCC(N)=O)NC1=O | – | Active; Compound Exerted Better Inhibitory Effect Than Tame | – | Activity (TERT-RPE1): No effect
CC(=O)N[C@@H](CCCNC(=N)N)C(=O)N[C@@H](Cc1c[nH]c2ccccc12)C(=O)N1CCC[C@H]1C(=O)N[C@@H](CCC(N)=O)C(=O)N[C@@]1(C)CCC/C=C/CCC[C@@](C)(C(=O)N[C@@H](CCC(N)=O)C(=O)N[C@H](C(=O)N[C@@H](CCCNC(=N)N)C(=O)N[C@@H](CCCNC(=N)N)C(=O)N[C@@H](Cc2c[nH]c3ccccc23)C(N)=O)C(C)C)NC(=O)[C@H](CC(=O)O)NC(=O)[C@H](Cc2c[nH]c3ccccc23)NC(=O)[C@H](CCCCN)NC1=O (Ac-RWPQ[S5]KWD[S5]QVRRW-NH2; staple (E) 5-9) | – | Active; Compound Exerted Better Inhibitory Effect Than Tame | – | Activity (TERT-RPE1): No effect
C#CC[C@H](NC(=O)[C@@H]1CCCN1C(=O)[C@H](Cc1c[nH]c2ccccc12)NC(=O)[C@H](CCCNC(=N)N)NC(C)=O)C(=O)N[C@@]1(C)CCC/C=C/CCC[C@@](C)(C(=O)N[C@@H](CCC(N)=O)C(=O)N[C@H](C(=O)N[C@@H](CCCNC(=N)N)C(=O)N[C@@H](CCCNC(=N)N)C(=O)N[C@@H](Cc2c[nH]c3ccccc23)C(N)=O)C(C)C)NC(=O)[C@H](CC(=O)O)NC(=O)[C@H](Cc2c[nH]c3ccccc23)NC(=O)[C@H](CCCCN)NC1=O (Ac-RWP[Pra][S5]KWD[S5]QVRRW-NH2; staple (E) 5-9) | – | – | – | Activity [6]: Active; Activity [7]: inactive; Activity [8]: inactive; Activity (TERT-RPE1): No effect; Drug uptake [5]: Active

Further lines, with some results ahead:

deltaG [1] | SMILES | inhibition (HeLa [2]) | inhibition (HeLa [3]) | also measured
-29.4 kcal/mol | CC(=O)N[C@H](C(=O)N[C@@H](Cc1cnc[nH]1)C(=O)N[C@H]1CSSC[C@@H](C(=O)N[C@@H](CCC(N)=O)C(=O)N[C@@H](CCCNC(=N)N)C(=O)N[C@H](C(N)=O)C(C)C)NC(=O)[C@H](CC(N)=O)NC(=O)[C@H](Cc2c[nH]c3ccccc23)NC(=O)[C@H](CCCNC(=N)N)NC(=O)[C@H](Cc2c[nH]c3ccccc23)NC(=O)[C@H]([C@@H](C)O)NC(=O)[C@H](CCC(=O)O)NC(=O)[C@@H]2CCCN2C(=O)[C@H](CC(=O)O)NC(=O)[C@H](CC(=O)O)NC1=O)[C@@H](C)O (Ac-THCDDPETWRWNCQRV-NH2; disulfide 3-13) | Active | Active | inhibition (HeLa [4]): Active
-19.6 kcal/mol | CC(=O)N[C@H]1CSSC[C@@H](C(=O)N[C@@H](CCC(=O)O)C(=O)N[C@@H](Cc2c[nH]c3ccccc23)C(=O)N[C@@H](CCCNC(=N)N)C(=O)N[C@@H](Cc2ccc(O)cc2)C(N)=O)NC(=O)[C@H](Cc2cnc[nH]2)NC(=O)[C@H](Cc2c[nH]c3ccccc23)NC(=O)[C@H](CCC(N)=O)NC(=O)[C@H](CO)NC(=O)[C@@H]2CCCN2C(=O)CNC(=O)[C@H](C)NC(=O)[C@H](CCC(=O)O)NC1=O (Ac-CEAGPSQWHCEWRY-NH2; disulfide 1-10) | – | inactive | –
-19.4 kcal/mol | C[C@@H](O)[C@H](NC(=O)[C@H](CCCNC(=N)N)NC(=O)[C@@H]1CSSC[C@H](NC(=O)[C@H](CCCNC(=N)N)NC(=O)CN)C(=O)N[C@@H](Cc2cnc[nH]2)C(=O)N[C@@H](Cc2c[nH]c3ccccc23)C(=O)NCC(=O)N2CCC[C@H]2C(=O)N[C@@H](CCC(=O)O)C(=O)N[C@@H]([C@@H](C)O)C(=O)N[C@@H](Cc2ccccc2)C(=O)N[C@@H](Cc2c[nH]c3ccccc23)C(=O)N1)C(=O)O (H-GRCHWGPETFWCRT-OH; disulfide 3-12) | – | Active | –
-21.1 kcal/mol | CC(=O)N[C@@H](CCCNC(=N)N)C(=O)N[C@H]1CSSC[C@@H](C(=O)N[C@@H](CCCNC(=N)N)C(N)=O)NC(=O)[C@H](Cc2c[nH]c3ccccc23)NC(=O)[C@H](Cc2ccccc2)NC(=O)[C@H]([C@@H](C)O)NC(=O)[C@H](CCC(=O)O)NC(=O)[C@@H]2CCCN2C(=O)CNC(=O)[C@H](Cc2c[nH]c3ccccc23)NC(=O)[C@H](Cc2cnc[nH]2)NC1=O (Ac-RCHWGPETFWCR-NH2; disulfide 2-11) | Active | Active | –
-29.4 kcal/mol | C[C@@H](O)[C@H](NC(=O)[C@H](CC(=O)O)NC(=O)CN)C(=O)N[C@H]1CSSC[C@@H](C(=O)N[C@@H](CCC(N)=O)C(=O)N[C@@H](CCCNC(=N)N)C(=O)N[C@@H](Cc2cnc[nH]2)C(=O)O)NC(=O)[C@H](CC(N)=O)NC(=O)[C@H](Cc2c[nH]c3ccccc23)NC(=O)[C@H](CCCNC(=N)N)NC(=O)[C@H](Cc2c[nH]c3ccccc23)NC(=O)[C@H]([C@@H](C)O)NC(=O)[C@H](CCC(=O)O)NC(=O)[C@@H]2CCCN2C(=O)[C@H](CC(=O)O)NC(=O)[C@H](CC(=O)O)NC1=O (H-GDTCDDPETWRWNCQRH-OH; disulfide 4-14) | Active | Active | –
-25.6 kcal/mol | CC(=O)N[C@@H](CCCNC(=N)N)C(=O)N[C@H]1CSSC[C@@H](C(=O)N[C@@H](CCCNC(=N)N)C(N)=O)NC(=O)[C@H](Cc2c[nH]c3ccccc23)NC(=O)[C@H](Cc2ccccc2)NC(=O)[C@H]([C@@H](C)O)NC(=O)[C@H](CCCNC(=N)N)NC(=O)[C@@H]2CCCN2C(=O)CNC(=O)[C@H](Cc2c[nH]c3ccccc23)NC(=O)[C@H](Cc2cnc[nH]2)NC1=O (Ac-RCHWGPRTFWCR-NH2; disulfide 2-11) | Active | Active | inhibition (HeLa [4]): Active
-18.3 kcal/mol | CC(=O)N[C@H]1CSSC[C@@H](C(=O)N[C@H](C(=O)N[C@@H](Cc2c[nH]c3ccccc23)C(=O)N[C@@H](CCCNC(=N)N)C(=O)N[C@@H](Cc2ccc(O)cc2)C(N)=O)[C@@H](C)O)NC(=O)[C@H](Cc2cnc[nH]2)NC(=O)[C@H](Cc2c[nH]c3ccccc23)NC(=O)[C@H](CCC(N)=O)NC(=O)[C@H](CO)NC(=O)[C@@H]2CCCN2C(=O)CNC(=O)[C@H](C)NC(=O)[C@H](CCC(=O)O)NC1=O (Ac-CEAGPSQWHCTWRY-NH2; disulfide 1-10) | – | inactive | –
